Converted amounts (≈) assume the structure as drawn. The source made the active and inactive calls. The rule behind the calls is not given here.
Experiments:
[1] = test system: Staphylococcus aureus; assay: (§1) Antibacterial activity against methicillin-resistant Staphylococcus aureus isolate assessed as percent resistant isolates by CLSI dilution method; type: functional
[2] = test system: Staphylococcus aureus; assay: Antibacterial activity against methicillin-susceptible Staphylococcus aureus isolate assessed as […] isolates by CLSI dilution method; type: functional
[3] = test system: Staphylococcus aureus; assay: as §1; type: functional; remark: listed apart in the source
[4] = test system: Staphylococcus sp.; assay: (§2) Antibacterial activity against methicillin-susceptible coagulase-negative Staphylococcus sp. assessed as percent susceptible isolates by CLSI dilution method; type: functional
[5] = test system: Staphylococcus sp.; assay: Antibacterial activity against methicillin-resistant coagulase-negative Staphylococcus sp. assessed as percent resistant isolates by CLSI dilution method; type: functional
[6] = test system: Staphylococcus sp.; assay: as §2; type: functional; remark: listed apart in the source
[7] = test system: Staphylococcus sp.; assay: Antibacterial activity against methicillin-susceptible coagulase-negative Staphylococcus sp. assessed as percent resistant isolates by CLSI dilution method; type: functional
[8] = test system: Staphylococcus aureus; assay: Antibacterial activity against methicillin-resistant Staphylococcus aureus isolate assessed as percent susceptible isolates by CLSI dilution method; type: functional
[9] = test system: Staphylococcus aureus; assay: Antibacterial activity against methicillin-resistant Staphylococcus aureus by CLSI dilution method; type: functional
[10] = test system: Staphylococcus aureus; assay: Antibacterial activity against methicillin-susceptible Staphylococcus aureus isolate by CLSI dilution method; type: functional
[11] = test system: Staphylococcus sp.; assay: Antibacterial activity against methicillin-resistant coagulase-negative Staphylococcus sp. by CLSI dilution method; type: functional
[12] = test system: Staphylococcus sp.; assay: Antibacterial activity against methicillin-susceptible coagulase-negative Staphylococcus sp. by CLSI dilution method; type: functional
[13] = test system: Staphylococcus simulans; assay: Antibacterial activity against methicillin-susceptible coagulase-negative Staphylococcus simulans by CLSI dilution method; type: functional
[14] = test system: Staphylococcus haemolyticus; assay: Antibacterial activity against methicillin-susceptible coagulase-negative Staphylococcus haemolyticus by CLSI dilution method; type: functional
[15] = test system: Staphylococcus hominis; assay: Antibacterial activity against methicillin-susceptible coagulase-negative Staphylococcus hominis by CLSI dilution method; type: functional
[16] = test system: Staphylococcus epidermidis; assay: Antibacterial activity against methicillin-susceptible coagulase-negative Staphylococcus epidermidis by CLSI dilution method; type: functional
[17] = test system: Streptococcus; assay: Antibacterial activity against Streptococcus by CLSI dilution method; type: functional, organism-based
[18] = test system: Enterococcus; assay: Antibacterial activity against Enterococcus by CLSI dilution method; type: functional, organism-based
[19] = test system: Moraxella catarrhalis; assay: Antibacterial activity against Moraxella catarrhalis by CLSI dilution method; type: functional, organism-based
[20] = test system: Listeria monocytogenes; assay: Antibacterial activity against Listeria monocytogenes by CLSI dilution method; type: functional, organism-based
[21] = test system: Staphylococcus hominis; assay: Antibacterial activity against methicillin-resistant coagulase-negative Staphylococcus hominis by CLSI dilution method; type: functional
[22] = test system: Nocardia sp.; assay: Antibacterial activity against Nocardia sp. by CLSI dilution method; type: functional, organism-based
[23] = test system: Corynebacterium; assay: Antibacterial activity against […] by CLSI dilution method; type: functional, organism-based
[24] = test system: Escherichia coli; assay: Antibacterial activity against sEscherichia coli by CLSI dilution method; type: functional, organism-based
[25] = test system: Klebsiella pneumoniae; assay: Antibacterial activity against Klebsiella pneumoniae by CLSI dilution method; type: functional, organism-based
[26] = test system: Enterobacter cloacae; assay: Antibacterial activity against sEnterobacter cloacae by CLSI dilution method; type: functional, organism-based
[27] = test system: Citrobacter freundii; assay: Antibacterial activity against Citrobacter freundii by CLSI dilution method; type: functional, organism-based
[28] = test system: Serratia marcescens; assay: Antibacterial activity against Serratia marcescens by CLSI dilution method; type: functional, organism-based
[29] = test system: Morganella morganii; assay: Antibacterial activity against Morganella morganii by CLSI dilution method; type: functional, organism-based
[30] = test system: Acinetobacter baumannii; assay: Antibacterial activity against sAcinetobacter baumannii by CLSI dilution method; type: functional, organism-based
[31] = test system: Pseudomonas aeruginosa; assay: Antibacterial activity against sPseudomonas aeruginosa by CLSI dilution method; type: functional, organism-based
[32] = test system: Aeromonas sp.; assay: Antibacterial activity against Aeromonas sp. by CLSI dilution method; type: functional, organism-based
[33] = test system: Vibrio sp.; assay: Antibacterial activity against Vibrio sp. by CLSI dilution method; type: functional, organism-based
[34] = test system: Haemophilus influenzae; assay: Antibacterial activity against sHaemophilus influenzae by CLSI dilution method; type: functional, organism-based
[35] = test system: Campylobacter fetus; assay: Antibacterial activity against Campylobacter fetus by CLSI dilution method; type: functional, organism-based
[36] = test system: Helicobacter pylori; assay: Antibacterial activity against Helicobacter pylori by CLSI dilution method; type: functional, organism-based
[37] = test system: Neisseria gonorrhoeae; assay: Antibacterial activity against Neisseria gonorrhoeae by CLSI dilution method; type: functional, organism-based
[38] = test system: Staphylococcus haemolyticus; assay: Antibacterial activity against methicillin-resistant coagulase-negative Staphylococcus haemolyticus by CLSI dilution method; type: functional
[39] = test system: Staphylococcus epidermidis; assay: Antibacterial activity against methicillin-resistant coagulase-negative Staphylococcus epidermidis by CLSI dilution method; type: functional
[40] = test system: Staphylococcus saprophyticus; assay: Antibacterial activity against methicillin-resistant coagulase-negative Staphylococcus saprophyticus by CLSI dilution method; type: functional
[41] = test system: Mammaliicoccus sciuri; assay: Antibacterial activity against methicillin-resistant coagulase-negative Staphylococcus sciuri by CLSI dilution method; type: functional

Structure (SMILES): CN(C)[C@@H]1C(O)=C(C(N)=O)C(=O)[C@@]2(O)C(O)=C3C(=O)c4c(O)cccc4[C@@](C)(O)[C@H]3C[C@@H]12 [TETRACYCLINE]
- Activity [1]: 75%
- Activity [2]: 88%
- Activity [3]: 12%
- Activity [4]: 67%
- Activity [5]: 31%
- Activity [6]: 78%
- Activity [7]: 22%
- Activity [8]: 25%
- MIC50 [9]: 64 µg/mL (≈ 144 µM)
- MIC90 [9]: 128 µg/mL (≈ 288 µM)
- MIC50 [10]: 1 µg/mL (≈ 2.25 µM)
- MIC90 [10]: 32 µg/mL (≈ 72 µM)
- MIC50 [11]: 2 µg/mL (≈ 4.5 µM)
- MIC90 [11]: 128 µg/mL (≈ 288 µM)
- MIC50 [12]: 0.5 µg/mL (≈ 1.13 µM)
- MIC90 [12]: 64 µg/mL (≈ 144 µM)

Structure (SMILES): CN[C@H](CC(C)C)C(=O)N[C@H]1C(=O)N[C@@H](CC(N)=O)C(=O)N[C@H]2C(=O)N[C@H]3C(=O)N[C@H](C(=O)N[C@H](C(=O)O)c4cc(O)cc(O)c4-c4cc3ccc4O)[C@H](O)c3ccc(c(Cl)c3)Oc3cc2cc(c3O[C@@H]2O[C@H](CO)[C@@H](O)[C@H](O)[C@H]2O[C@H]2C[C@](C)(N)[C@H](O)[C@H](C)O2)Oc2ccc(cc2Cl)[C@H]1O [VANCOMYCIN]
- Activity [1]: 0%
- Activity [2]: 100%
- Activity [3]: 0%
- Activity [4]: 99%
- Activity [5]: 0%
- Activity [6]: 100%
- Activity [7]: 0%
- Activity [8]: 100%
- MIC50 [9]: 1 µg/mL (≈ 0.69 µM)
- MIC90 [9]: 1 µg/mL (≈ 0.69 µM)
- MIC50 [10]: 1 µg/mL (≈ 0.69 µM)
- MIC90 [10]: 1 µg/mL (≈ 0.69 µM)
- MIC50 [11]: 1 µg/mL (≈ 0.69 µM)
- MIC90 [11]: 2 µg/mL (≈ 1.38 µM)
- MIC50 [12]: 1 µg/mL (≈ 0.69 µM)
- MIC90 [12]: 2 µg/mL (≈ 1.38 µM)

Structure (SMILES): CCC[C@@H]1C[C@@H](C(=O)N[C@@H]([C@H]2O[C@H](SC)[C@H](O)[C@@H](O)[C@H]2O)[C@H](C)Cl)N(C)C1 [CLINDAMYCIN]
- Activity [1]: 88%
- Activity [2]: 100%
- Activity [3]: 0%
- Activity [4]: 44%
- Activity [5]: 54%
- Activity [6]: 97%
- Activity [7]: 3%
- Activity [8]: 12%
- MIC50 [9]: > 128 µg/mL
- MIC90 [9]: > 128 µg/mL
- MIC50 [10]: 0.12 µg/mL (≈ 0.282 µM)
- MIC90 [10]: 0.12 µg/mL (≈ 0.282 µM)
- MIC50 [11]: > 128 µg/mL
- MIC90 [11]: > 128 µg/mL
- MIC50 [12]: 0.12 µg/mL (≈ 0.282 µM)
- MIC90 [12]: 0.25 µg/mL (≈ 0.588 µM)

Structure (SMILES): Cc1c(N)cccc1Cn1ccc(OCCc2cccs2)cc1=O [CG-400549]
- MIC [13]: 4 µg/mL (≈ 11.7 µM)
- MIC [14]: 2 µg/mL (≈ 5.87 µM)
- MIC [15]: 4 µg/mL (≈ 11.7 µM)
- MIC [16]: 8 µg/mL (≈ 23.5 µM)
- Activity [17]: Active
- Activity [18]: Active
- Activity [19]: Active
- Activity [20]: Active
- MIC [21]: 4 µg/mL (≈ 11.7 µM)
- Activity [22]: Active
- Activity [23]: Active
- Activity [24]: Active
- Activity [25]: Active
- Activity [26]: Active
- Activity [27]: Active
- Activity [28]: Active
- Activity [29]: Active
- Activity [30]: Active
- Activity [31]: Active
- Activity [32]: Active
- Activity [33]: Active
- Activity [34]: Active
- Activity [35]: Active
- Activity [36]: Active
- Activity [37]: Active
- MIC50 [9]: 0.5 µg/mL (≈ 1.47 µM)
- MIC90 [9]: 0.5 µg/mL (≈ 1.47 µM)
- MIC50 [10]: 0.5 µg/mL (≈ 1.47 µM)
- MIC90 [10]: 0.5 µg/mL (≈ 1.47 µM)
- MIC50 [11]: 0.5 µg/mL (≈ 1.47 µM)
- MIC90 [11]: 4 µg/mL (≈ 11.7 µM)
- MIC50 [12]: 0.5 µg/mL (≈ 1.47 µM)
- MIC90 [12]: 8 µg/mL (≈ 23.5 µM)
- MIC [38]: 2 µg/mL (≈ 5.87 µM)
- MIC [39]: 4 µg/mL (≈ 11.7 µM)
- MIC [40]: 8 µg/mL (≈ 23.5 µM)
- MIC [41]: 4 µg/mL (≈ 11.7 µM)

Structure (SMILES): CC(=O)NC[C@H]1CN(c2ccc(N3CCOCC3)c(F)c2)C(=O)O1 [LINEZOLID]
- Activity [2]: 100%
- Activity [4]: 100%
- Activity [6]: 100%
- Activity [8]: 100%
- MIC50 [9]: 2 µg/mL (≈ 5.93 µM)
- MIC90 [9]: 2 µg/mL (≈ 5.93 µM)
- MIC50 [10]: 4 µg/mL (≈ 11.9 µM)
- MIC90 [10]: 4 µg/mL (≈ 11.9 µM)
- MIC50 [11]: 1 µg/mL (≈ 2.96 µM)
- MIC90 [11]: 2 µg/mL (≈ 5.93 µM)
- MIC50 [12]: 1 µg/mL (≈ 2.96 µM)
- MIC90 [12]: 2 µg/mL (≈ 5.93 µM)

Structure (SMILES): Cc1onc(-c2ccccc2)c1C(=O)N[C@@H]1C(=O)N2[C@@H]1SC(C)(C)[C@@H]2C(=O)O [OXACILLIN]
- Activity [1]: 100%
- Activity [2]: 100%
- Activity [3]: 0%
- Activity [4]: 0%
- Activity [5]: 100%
- Activity [6]: 100%
- Activity [7]: 0%
- Activity [8]: 0%
- MIC50 [9]: > 128 µg/mL
- MIC90 [9]: > 128 µg/mL
- MIC50 [10]: 0.5 µg/mL (≈ 1.25 µM)
- MIC90 [10]: 0.5 µg/mL (≈ 1.25 µM)
- MIC50 [11]: 32 µg/mL (≈ 79.7 µM)
- MIC90 [11]: > 128 µg/mL
- MIC50 [12]: 0.12 µg/mL (≈ 0.299 µM)
- MIC90 [12]: 0.25 µg/mL (≈ 0.623 µM)

Structure (SMILES): CC[C@H]1OC(=O)[C@H](C)[C@@H](O[C@H]2C[C@@](C)(OC)[C@@H](O)[C@H](C)O2)[C@H](C)[C@@H](O[C@@H]2O[C@H](C)C[C@H](N(C)C)[C@H]2O)[C@](C)(O)C[C@@H](C)C(=O)[C@H](C)[C@@H](O)[C@]1(C)O [ERYTHROMYCIN]
- Activity [1]: 95%
- Activity [2]: 88%
- Activity [3]: 12%
- Activity [4]: 20%
- Activity [5]: 80%
- Activity [6]: 78%
- Activity [7]: 17%
- Activity [8]: 5%
- MIC50 [9]: > 128 µg/mL
- MIC50 [10]: 0.5 µg/mL (≈ 0.681 µM)
- MIC90 [10]: > 128 µg/mL
- MIC50 [11]: 128 µg/mL (≈ 174 µM)
- MIC90 [11]: > 128 µg/mL
- MIC50 [12]: 0.25 µg/mL (≈ 0.341 µM)
- MIC90 [12]: 128 µg/mL (≈ 174 µM)

Structure (SMILES): C[C@H]1COc2c(N3CCN(C)CC3)c(F)cc3c(=O)c(C(=O)O)cn1c23.C[C@H]1COc2c(N3CCN(C)CC3)c(F)cc3c(=O)c(C(=O)O)cn1c23.O [LEVOFLOXACIN]
- Activity [1]: 93%
- Activity [2]: 100%
- Activity [3]: 0%
- Activity [4]: 35%
- Activity [5]: 60%
- Activity [6]: 100%
- Activity [7]: 0%
- Activity [8]: 7%
- MIC50 [9]: 16 µg/mL
- MIC90 [9]: > 128 µg/mL
- MIC50 [10]: 0.25 µg/mL
- MIC90 [10]: 0.5 µg/mL
- MIC50 [11]: 4 µg/mL
- MIC90 [11]: 32 µg/mL
- MIC50 [12]: 0.25 µg/mL
- MIC90 [12]: 0.25 µg/mL

— ChEMBL document CHEMBL1150783, “In vitro activities of CG400549, a novel FabI inhibitor, against recently isolated clinical staphylococcal strains in Korea” (2007)
